The results in this text go back to patent US9777017B2, “Tricyclic fused thiophene derivatives as JAK inhibitors” (Incyte Corporation, priority 2012, dated 2017).

A value given as a limit tells only on which side of the number the result lay.

Common to all, as to assay type: biochemical
For assay [1], the target named is human JAK1 (Homo sapiens, UniProt P23458). Description: In vitro JAK kinase assay (HTRF, phosphorylation of a biotinylated peptide), JAK1. Particulars: 1 mM ATP. How it is done: (§1) Compounds herein were tested for inhibitory activity of JAK targets according to the following in vitro assay described in Park et al., Analytical Biochemistry 1999, 269, 94-104. The catalytic domains of human JAK1 (a.a. 837-1142), JAK2 (a.a. 828-1132) and JAK3 (a.a. 781-1124) were expressed using baculovirus in insect cells and purified. The catalytic activity of JAK1, JAK2 or JAK3 was assayed by measuring the phosphorylation of a biotinylated peptide. The phosphorylated peptide was detected by homogenous time resolved fluorescence (HTRF). IC50s of compounds were measured for each kinase in the 40 μL reactions that contain the enzyme, ATP and 500 nM peptide in 50 mM Tris (pH 7.8) buffer with 100 mM NaCl, 5 mM DTT, and 0.1 mg/mL (0.01%) BSA. For the 1 mM IC50 measurements, ATP concentration in the reactions was 1 mM. Reactions were carried out at room temperature for 1 hour and then stopped with 20 μL 45 mM EDTA, 300 nM SA-APC, 6 nM Eu-Py20 in assay buffer (Perkin Elmer, Boston, Mass.). Binding to the Europium labeled antibody took place for 40 minutes and HTRF signal was measured on a PHERA star plate reader (BMG, Cary, N.C.). The Example compounds were each tested in the Example A assay (see Table 1 for data for the compounds of the examples as tested by the assay of Example A at 1 mM ATP).

The test system of assay [2] is human JAK1. The assay is described as above. The conditions noted are these: ratio of IC50s, 1 mM ATP. As for the experimental part:
as §1

For another assay, the target named is human JAK2 (Homo sapiens (Human), UniProt O60674). The experiment in a line: In vitro JAK kinase assay (HTRF, phosphorylation of a biotinylated peptide), JAK2. Further details: key to JAK2 IC50 (nM): +indicates an IC50 of ≦100 nM; ++indicates an IC50 of ≦1000 nM; +++indicates an IC50 of ≦2000 nM; ++++indicates an IC50 of >2000 nM; +++++indicates that the IC50 was greater than the highest concentration tested. The conditions noted are these: 1 mM ATP. As for the experimental part:
as §1
In general terms: TR-FRET usually uses a lanthanide donor and a delayed reading to cut background.

human JAK2, sequence (O60674 828-1132): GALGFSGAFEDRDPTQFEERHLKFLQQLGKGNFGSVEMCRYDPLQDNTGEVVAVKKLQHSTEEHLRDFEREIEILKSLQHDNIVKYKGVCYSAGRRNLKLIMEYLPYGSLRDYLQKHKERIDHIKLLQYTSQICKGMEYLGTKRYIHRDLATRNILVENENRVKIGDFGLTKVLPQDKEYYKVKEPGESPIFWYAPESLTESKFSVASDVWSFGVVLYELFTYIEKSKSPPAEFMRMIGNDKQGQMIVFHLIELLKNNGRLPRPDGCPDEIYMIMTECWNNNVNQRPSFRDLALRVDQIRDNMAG

As a reminder, the IC50 is the midpoint of a concentration-inhibition curve. As for `N#CC[C@H]1CC[C@H](n2c(C3CC3)nc3cnc4ccsc4c32)CO1` [Example 43, [(2R,5S)-5-(2-Cyclopropyl-1H-imidazo[4,5-d]thieno[3,2-b]pyridin-1-yl)tetrahydro-2H-pyran-2-yl]acetonitrile], the IC50 at human JAK1 [1] was at most 100 nM; on human JAK2, at most 1000 nM. Further, the JAK2/JAK1 in the assay on human JAK1 [2] was above 10.
For the compound `C[C@@H](O)c1cc2cnc3ccsc3c2n1[C@H]1CC[C@H](CC#N)CC1` [Example 23, (trans-4-{7-[(1R)-1-Hydroxyethyl]-8H-pyrrolo[2,3-d]thieno[3,2-b]pyridin-8-yl}cyclohexyl)acetonitrile], the IC50 is at most 100 nM at human JAK1 [1] and at most 1000 nM against human JAK2. The JAK2/JAK1 with human JAK1 [2] is above 10.
Take `CC(C)OC(=O)NC[C@H]1CC[C@H](n2c([C@@H](C)O)nc3cnc4ccsc4c32)CC1` [Example 84, Isopropyl [(trans-4-{2-[(1R)-1-hydroxyethyl]-1H-imidazo[4,5-d]thieno[3,2-b]pyridin-1-yl}cyclohexyl)methyl]carbamate]: the IC50 on human JAK1 [1] was at most 100 nM; at human JAK2 it was at most 1000 nM. Also, the JAK2/JAK1 in the assay with human JAK1 [2] is above 10.
The compound `C[C@@H](O)c1nc2cnc3ccsc3c2n1[C@H]1CCN(CCCC(F)(F)F)C1` [Example 64, (1R)-1-{1-[(3S)-1-(4,4,4-Trifluorobutyl)pyrrolidin-3-yl]-1H-imidazo[4,5-d]thieno[3,2-b]pyridin-2-yl}ethanol] gave an IC50 on human JAK1 [1] of at most 100 nM. Moreover, the JAK2/JAK1 in the assay with human JAK1 [2] is on record as above 10. In addition, the “JAK2 IC50 (nM)” value on human JAK2 was “+++++”.
In the case of `C[C@@H](O)c1nc2cnc3ccsc3c2n1C1CCC(NCCC#N)CC1` (single isomer, unassigned) [30 (first peak)], the IC50 at human JAK1 [1] is at most 1000 nM; on human JAK2, above 2000 nM. Further, in the assay with human JAK1 [2], the JAK2/JAK1 is reported as above 2.
The corresponding values for `C[C@@H](O)c1nc2cnc3ccsc3c2n1C1CCCCC1` [Example 13, (1R)-1-(1-Cyclohexyl-1H-imidazo[4,5-d]thieno[3,2-b]pyridin-2-yl)ethanol] are at most 100 nM, above 2000 nM and above 10.
Regarding `C[C@@H](O)c1nc2cnc3ccsc3c2n1[C@H]1CCCOC1` [Example 1, (1R)-1-{1-[(3S)-Tetrahydro-2H-pyran-3-yl]-1H-imidazo[4,5-d]thieno[3,2-b]pyridin-2-yl}ethanol], at human JAK1 [1], the IC50 was at most 1000 nM. In the assay with human JAK1 [2], the JAK2/JAK1 is above 3. Besides, the “JAK2 IC50 (nM)” value at human JAK2 was “+++++”.
Turning to “[(1R,2S,4S)-4-(2-Methyl-1H-imidazo[4,5-d]thieno[3,2-b]pyridin-1-yl)-2-hydroxycyclohexyl]acetonitrile and [(1S,2R,4R)-4-(2-methyl-1H-imidazo[4,5-d]thieno[3,2-b]pyridin-1-yl)-2-hydroxycyclohexyl]acetonitrile [41 (first peak)]”, the IC50 on human JAK1 [1] was at most 100 nM; on human JAK2, at most 1000 nM. In addition, in the assay with human JAK1 [2], the JAK2/JAK1 was above 10.
As to `Cc1nc2cnc3ccsc3c2n1[C@H]1CC[C@H](CC#N)CC1` [Example 48, [trans-4-(2-Methyl-1H-imidazo[4,5-d]thieno[3,2-b]pyridin-1-yl)cyclohexyl]acetonitrile], the IC50 against human JAK1 [1] and on human JAK2 was at most 100 nM in each case. Moreover, in the assay with human JAK1 [2], the JAK2/JAK1 is above 7.
For `C[C@@H](O)c1nc2cnc3ccsc3c2n1[C@H]1CCCN(C(=O)CC#N)C1.O=C(O)C(F)(F)F` [Example 51, 3-((3S)-3-{2-[(1R)-1-Hydroxyethyl]-1H-imidazo[4,5-d]thieno[3,2-b]pyridin-1-yl}piperidin-1-yl)-3-oxopropanenitrile trifluoroacetate], the IC50 was at most 1000 nM at human JAK1 [1] and above 2000 nM on human JAK2. The JAK2/JAK1 in the assay with human JAK1 [2] was above 10.
The corresponding values for `C[C@@H](O)c1nc2cnc3ccsc3c2n1C1CCCC(CCC#N)C1` (stereo partly drawn) [Example 32, 3-(3-{2-[(1R)-1-Hydroxyethyl]-1H-imidazo[4,5-d]thieno[3,2-b]pyridin-1-yl}cyclohexyl)propanenitrile] are at most 100 nM, above 2000 nM and above 10.
At human JAK1 [1], `CS(=O)(=O)NCc1nc2cnc3ccsc3c2n1[C@H]1CC2CCC1C2` (stereo partly drawn) [Example 22, N-((1-((2S)-Bicyclo[2.2.1]heptan-2-yl)-1H-imidazo[4,5-d]thieno[3,2-b]pyridin-2-yl)methyl)methanesulfonamide] had an IC50 of at most 1000 nM. In addition, the JAK2/JAK1 with human JAK1 [2] is given as above 4. The “JAK2 IC50 (nM)” value on human JAK2 is “+++++”.
Consider “((1R,2S,4S)-2-Hydroxy-4-{2-[(1R)-1-hydroxyethyl]-1H-imidazo[4,5-d]thieno[3,2-b]pyridin-1-yl}cyclohexyl)acetonitrile trifluoacetate and ((1S,2R,4R)-2-hydroxy-4-{2-[(1R)-1-hydroxyethyl]-1H-imidazo[4,5-d]thieno[3,2-b]pyridin-1-yl}cyclohexyl)acetonitrile trifluoacetate [37 (first peak)]”, for which the IC50 at human JAK1 [1] is at most 1000 nM. Moreover, in the assay with human JAK1 [2], the JAK2/JAK1 is given as above 10. For the same compound, on human JAK2, the “JAK2 IC50 (nM)” value is reported as “+++++”.
In the case of `Cc1nc2cnc3ccsc3c2n1[C@H]1CC[C@H](CC#N)OC1` [Example 38, [(2R,5S)-5-(2-Methyl-1H-imidazo[4,5-d]thieno[3,2-b]pyridin-1-yl)tetrahydro-2H-pyran-2-yl]acetonitrile], the IC50 against human JAK1 [1] and at human JAK2 was at most 100 nM in each case. In addition, the JAK2/JAK1 in the assay with human JAK1 [2] is above 10.
In the case of `CC(C)c1nc2cnc3ccsc3c2n1[C@H]1CC[C@H](CC#N)CC1` [Example 27, [trans-4-(2-Isopropyl-1H-imidazo[4,5-d]thieno[3,2-b]pyridin-1-yl)cyclohexyl]acetonitrile], the results for the IC50 against human JAK1 [1] and against human JAK2 were at most 100 nM and at most 1000 nM, respectively. In addition, the JAK2/JAK1 in the assay on human JAK1 [2] was above 10.
For `CCc1nc2cnc3ccsc3c2n1[C@H]1CC[C@H](CC#N)OC1` [Example 39, [(2R,5S)-5-(2-Ethyl-1H-imidazo[4,5-d]thieno[3,2-b]pyridin-1-yl)tetrahydro-2H-pyran-2-yl]acetonitrile], the IC50 at human JAK1 [1] is at most 100 nM; at human JAK2, at most 1000 nM. Besides, the JAK2/JAK1 in the assay on human JAK1 [2] is listed as above 10.
In the same order, the values of `COC(=O)NC[C@H]1CC[C@H](n2c([C@@H](C)O)nc3cnc4ccsc4c32)CC1` [Example 78, Methyl [(trans-4-{2-[(1R)-1-hydroxyethyl]-1H-imidazo[4,5-d]thieno[3,2-b]pyridin-1-yl}cyclohexyl)methyl]carbamate] are at most 100 nM, at most 1000 nM and above 10.
With “((1R,2R,4S)-2-Hydroxy-4-{2-[(1R)-1-hydroxyethyl]-1H-imidazo[4,5-d]thieno[3,2-b]pyridin-1-yl}cyclohexyl)acetonitrile and ((1S,2S,4R)-2-hydroxy-4-{2-[(1R)-1-hydroxyethyl]-1H-imidazo[4,5-d]thieno[3,2-b]pyridin-1-yl}cyclohexyl)acetonitrile [36 (second peak)]”, the IC50 against human JAK1 [1] is at most 100 nM; on human JAK2 it was at most 1000 nM. Also, the JAK2/JAK1 with human JAK1 [2] is on record as above 10.
For the compound `CCNC(=O)C[C@H]1CC[C@H](n2c([C@@H](C)O)nc3cnc4ccsc4c32)CC1` [Example 31, N-Ethyl-2-(trans-4-{2-[(1R)-1-hydroxyethyl]-1H-imidazo[4,5-d]thieno[3,2-b]pyridin-1-yl}cyclohexyl)acetamide], on human JAK1 [1], the IC50 is at most 1000 nM. Further, the JAK2/JAK1 in the assay on human JAK1 [2] is given as above 10. Moreover, the “JAK2 IC50 (nM)” value on human JAK2 is listed as “+++++”.
Turning to “((1R,2S,4S)-2-Hydroxy-4-{2-[(1R)-1-hydroxyethyl]-1H-imidazo[4,5-d]thieno[3,2-b]pyridin-1-yl}cyclohexyl)acetonitrile trifluoacetate and ((1S,2R,4R)-2-hydroxy-4-{2-[(1R)-1-hydroxyethyl]-1H-imidazo[4,5-d]thieno[3,2-b]pyridin-1-yl}cyclohexyl)acetonitrile trifluoacetate [37 (second peak)]”, the figures for the IC50 on human JAK1 [1] and at human JAK2 were at most 100 nM and at most 1000 nM, respectively. Besides, in the assay on human JAK1 [2], the JAK2/JAK1 is on record as above 10.
With `C[C@@H](O)c1nc2cnc3ccsc3c2n1[C@H]1CC[C@H](CCC#N)CC1` [Example 8, 3-(trans-4-{2-[(1R)-1-Hydroxyethyl]-1H-imidazo[4,5-d]thieno[3,2-b]pyridin-1-yl}cyclohexyl)propane nitrile], the 50% inhibitory concentration (IC50) is at most 100 nM against human JAK1 [1] and at most 1000 nM at human JAK2. Also, the JAK2/JAK1 in the assay with human JAK1 [2] is reported as above 10.
